Test results taken from US20070104799A1, “Treatment of chronic kidney disease (CKD) subjects using lanthanum compounds” (SHIRE INT[…] B.V., priority 2005, published 2007).
Read-outs that look alike come from different tables or passages of the source.

Test system: Crl:CD (SD) Br (VAFplus) female rats with spontaneous renal pathology, including mineralization
Conditions: 104 weeks; for rats with evidence of pelvic/papillary mineralization / rats with evidence of transitional cell hyperplasia in kidneys: n=60; for rats with evidence of pelvic/papillary mineralization: undosed rats approx. 50% (n=120); for rats with evidence of transitional cell hyperplasia in kidneys: undosed rats approx. 63% (n=120)
Description: Crl:CD (SD) Br (VAFplus) female rats (available from Charles River Laboratories in Wilmington, Mass.) were orally dosed once daily with 0, 100, 500, or 1500 mg (salt)/kg of lanthanum carbonate for 104 weeks. Crl:CD (SD) Br (VAFplus) female rats develop spontaneous renal pathology, including mineralization, as they age. At week 105, the pathological examination of the kidneys of these rats was performed.
Transitional cell hyperplasia is a response to trauma caused by the unnatural presence of mineral in the tissue, thus mineralization and hyperplasia are closely linked.

Structure (SMILES): O=C([O-])[O-].O=C([O-])[O-].O=C([O-])[O-].[La+3].[La+3] [lanthanum carbonate]
- rats with evidence of pelvic/papillary mineralization (100 mg (salt)/kg/day oral): ~35%
- rats with evidence of transitional cell hyperplasia in kidneys (100 mg (salt)/kg/day oral): ~48%
- rats with evidence of pelvic/papillary mineralization (500 mg (salt)/kg/day oral): ~5%
- rats with evidence of transitional cell hyperplasia in kidneys (500 mg (salt)/kg/day oral): ~23%
- rats with evidence of pelvic/papillary mineralization (1500 mg (salt)/kg/day oral): ~1.7%
- rats with evidence of transitional cell hyperplasia in kidneys (1500 mg (salt)/kg/day oral): ~7%
- effect on renal calcification (study conclusion) (oral administration, 100-1500 mg (salt)/kg/day): reduces renal calcification
